{"source": "patent US20040156802A1", "about": "“Cosmetics or external preparations for skin” (priority 2001, published 2004)", "key": {"[1]": {"tested_on": "rabbits (New Zealand White species, male)", "test": "Test on the primary irritation of the skin", "type": "in vivo, rabbit", "conditions": "for Evaluation Value For irritation: alone, shaved rabbit back, blocked 24 hours; for effect on the primary irritation of the skin when used in combination with the irritant: in comparison with the irritant used singly, rabbit", "procedure": "Each back portion of rabbits (New Zealand White species, male) was shaved and each of the test compounds was applied thereto. Each of the test compound-applied portions was blocked for 24 hours, After 24, 48, 72 and 168 hours from the time of applying the test compound, the judgments were conducted for the erythema and edema appeared on the test compound-applied portion based on their standards indicated in table 1. The average evaluation value in each time at which the judgment was conducted was calculated (the value obtained by dividing the combined value of the evaluation value for erythema and that for edema by the number of animal used in the test). In addition, the average evaluation value in each time at which the judgment was conducted was all added up and the total value was divided by the number of judgment (4 times) to make the evaluation value of the primary initation."}, "[2]": {"tested_on": "an adult", "test": "Test in human on function of inhibiting erythema and irritation (tape-stripped forearm, protopic ointment)", "type": "in vivo", "conditions": "skin where the barrier function was reduced by tape stripping (30 times)", "procedure": "A series of tests were conducted by an adult With respect to the function of inhibiting the skin erythema and irritation induced by an organic acid. A test solution of N, N′-diacetyl-L-cystine dimethyl ester dissolved in a 25% aqueous ethanol solution (the concentration of N, N′-diacetyl-L-cystine dimethyl ester; 10%) was prepared. A solution of only the solvents was separately prepared as control solution. 30 Times of tape stripping were conducted on the inward portion of the panelist's forearm. To the portion which the tape stripping procedures have been conducted was applied {circle over (2)} test solution (or control solution) in addition to {circle over (1)} control (any solvent is not applied). After 4 minutes, to each of the portions ({circle over (1)} control portion (both forearms) {circle over (2)} test solution-applied portion and {circle over (3)} control solution-applied portion) was applied protopic ointment (tacrolimus: 1 mg/g), and the erytherma and irritation appeared on each of the portions after an additional 5 minutes were evaluated. […] In the skin where the barrier function of the skin was reduced by tape stripping (30 times), erytherma and irritation caused by the protopic ointment were suppressed by N, N′-diacetyl-L-cystine dimethyl ester."}, "[3]": {"tested_on": "adult men", "test": "Test in human on function of inhibiting the irritation induced by an organic acid (test solution applied 3 minutes before glycolic acid)", "type": "in vivo", "conditions": "glycolic acid concentration: 10%", "procedure": "A series of tests were conducted by four adult men with respect to the function of inhibiting the irritation of the skin induced an organic acid. There were prepared a solution of glycolic acid dissolved in a 25% aqueous ethanol solution (the concentration of glycolic acid: 10%) and a test solution of N, N′-diacetyl-L-cystine dimethyl ester dissolved in the same solvents (the concentration of N, N′-diacetyl-L-cystine dimethyl ester: 10%). A solution of only the solvent was separately prepared as the control solution. After all of the panelists washed their faces, either test solution or control solution was applied to each right cheek of the their faces with a cotton bud. After additional 3 minutes, the glycolic acid solution was applied to the same portion as in the above and the irritation which each of the panelists felt was recorded as the score every a minute after a minute from the time of applying the glycolic acid solution for 10 minutes based on its evaluation standards shown below. […] After additional 3 minutes, the glycolic acid solution was applied to the same portion and the irritation which each of the panelists felt at the applied portion was similarly recorded as the score every a minute after a minute from the time of applying the glycolic acid solution for 10 minutes. […]"}, "[4]": {"tested_on": "adult men", "test": "Test in human on function of inhibiting the irritation induced by an organic acid (solution B applied 4 minutes before glycolic acid solution A)", "type": "in vivo", "conditions": "glycolic acid concentration: 20%", "procedure": "A series of tests were conducted by three adult men with respect to the function of inhibiting the irritation of the skin induced an organic acid. […] After all of the panelists washed their faces, solution B (or solution C) was applied to each right cheek (or each left cheek) of the their faces with a cotton bud. […] The irritation which each of the panelists felt at the solution-applied portion was recorded as the score every a minute after a minute from the time of applying the solution for 5 minutes based on its evaluation standards shown below. In addition, the function of the test compound (N, N′-diacetyl-L-cystine dimethyl ester) for inhibiting the irritation was judged based on the judging standards shown below."}, "[5]": {"conditions": "concentration 3%, erythema + edema averaged over 24, 48, 72 and 168 hours"}}, "note": "Values joined by “and” are separate entries in the source; they are usually repeats but may differ in a detail not shown here. Equal entries are not always repeated."}
{"molecule": "CC(O)C(=O)O", "note": "(stereo not drawn) [Lactic acid]", "values": [{"measurement": "Evaluation Value For irritation", "setting": "[1]; concentration 70%, erythema + edema averaged over 24, 48, 72 and 168 hours", "result": 1.4}]}
{"molecule": "COC(=O)[C@H](CSSC[C@H](NC(C)=O)C(=O)OC)NC(C)=O", "note": "[N,N′-diacetyl-L-cystine dimethyl ester]", "values": [{"measurement": "erythema and irritation caused by the protopic ointment", "setting": "[2]", "result": "suppressed"}, {"measurement": "inhibitory function in human toward irritation caused by glycolic acid", "setting": "[3]", "result": "exhibited inhibitory function"}, {"measurement": "inhibitory function in human toward irritation caused by glycolic acid", "setting": "[4]", "result": "exhibited inhibitory function"}, {"measurement": "effect on the primary irritation of the skin when used in combination with the irritant", "setting": "[1]", "result": "mitigates the primary irritation of the skin"}]}
{"molecule": "CCCCCCCC(=O)N[C@@H](CSSC[C@H](NC(=O)CCCCCCC)C(=O)OC)C(=O)OC", "note": "[N,N′-dioctanoyl-L-cystine dimethyl ester]", "values": [{"measurement": "effect on the primary irritation of the skin when used in combination with the irritant", "setting": "[1]", "result": "mitigates the primary irritation of the skin"}]}
{"molecule": "CCCCCCCCCCCCOS(=O)(=O)[O-].[Na+]", "note": "[Sodium lauryl sulfate]", "values": [{"measurement": "Evaluation Value For irritation", "setting": "[1]; concentration 5%, erythema + edema (each 0-4) averaged over judgments at 24, 48, 72 and 168 hours, sulfate", "result": "6.6 and 6.4"}]}
{"molecule": "CCCCCCCCCCCCCCCCCC[N+](C)(C)C.[Cl-]", "note": "[Stearyl trimethyl ammonium chloride]", "values": [{"measurement": "Evaluation Value For irritation", "setting": "[1]; [5]", "result": 3.7}]}
{"molecule": "Benzalkonium chloride", "values": [{"measurement": "Evaluation Value For irritation", "setting": "[1]; [5]", "result": 5.3}]}
